How the values were obtained:
[1] = tested on: total primary human T-cells; assay: IL-2 and IFN-γ release by stimulated total primary human T-cells (ELISA); type: cell-based; conditions: plate bound anti-CD3, with and without CD28 co-stimulation, lesser degree without co-stimulation
Protocol: Cells were stimulated with plate bound anti-CD3 (right) or anti-CD3/anti-CD28 (left) in presence or absence of the indicated concentration of Compound 23. Release of IL-2 or IFN-γ were assessed by ELISA. Compound 23 inhibition of Cbl-b enhanced IL-2 and IFN-γ secretion in primary human T cells stimulated with anti-CD3 antibodies, in both the presence and absence of CD28 co-stimulation, although to a lesser degree in the absence of co-stimulation.

[2] = tested on: CT26 tumors; assay: CT26 colon carcinoma tumor model, tumor volume; type: in vivo, mice; conditions: oral 10 mg/kg or 30 mg/kg, Day 7 to Day 32; tumor volume at Day 25
Protocol: Mice bearing tumors on their left and right flanks were treated from Day 7 to Day 32 with oral Compound 23 at 10 mg/kg or 30 mg/kg or vehicle. Volumes at Day 25 are indicated. Statistics were calculated with one-way ANOVA and Dunn's multiple comparisons test ** P<0.01.

[3] = tested on: 4T1 tumors; assay: 4T1 triple negative mammary carcinoma metastatic model with primary tumor resection, survival; type: in vivo, mice; conditions: oral 30 mg/kg daily
Description: Another in vivo study evaluated the ability of Compound 23 treatment, started before the primary tumor resection, to eradicate 4T1 breast carcinoma metastatic disease. The 4T1 triple negative mammary carcinoma is a transplantable tumor cell line that is highly tumorigenic and invasive and, unlike most tumor models, spontaneously metastasizes from a primary tumor growing in the mammary gland to multiple distant sites including lymph nodes, blood, liver, lung, brain, and bone. Tumor cells are easily transplanted into the mammary glands so that the primary tumor grows in the anatomically relevant site. The progressive spread of 4T1 metastases to other organs is very similar to that of human mammary cancer. Animals die from disseminated metastatic disease regardless of resection of the primary tumor (Pulaski et al., 2000, Current Protocols in Immunology 39(1):20.2.1-20.2.16). […] Beginning on Day 7, tumor volumes were measured twice weekly until they reached a mean tumor volume of 145 mm^3 when the primary tumors were resected on Day 14 or 15 (dotted line). Median survival times were calculated for each group and body weights were monitored until the end of the study on Day 140. Body weights were measured twice weekly then once weekly starting Day 47. […] Statistical significance of differences in conditional survival between groups was evaluated using the Log-rank (Mantel-Cox) test. […] Median survival is reported as undefined for the Compound 23 group, as survival exceeds 50% at Day 140.

[4] = tested on: CT26 tumors; assay: nCounter Mouse PanCancer Immune Profiling Panel gene expression in CT26 tumors; type: in vivo, mice; conditions: vs vehicle
Description: In this example, the gene expression changes induced in tumors from mice treated with Compound 23 studies were as investigated. To perform this assessment, the nCounter PanCancer Immune Profiling Panel was used, which is a multiplexed gene expression panel developed by NanoString Technologies that measures expression of 770 immune and cancer related genes (Eastel et al., 2019, Expert Review of Molecular Diagnostics, 19(7):591-598). This technology is a unique gene expression tool that covers many important features of the immune response in the tumor microenvironment and was used to facilitate the understanding of immune related changes in tumors treated with Compound 23.
In FIG. 4A, CT26 tumors were harvested after 4 doses and after 19 doses of Compound 23 or vehicle and gene expression was directly measured using the nCounter Mouse PanCancer Immune Profiling Panel. Analysis was performed using the nSolver 4.0 and the nCounter Advanced Analysis software comparing gene expression in Compound 23 to vehicle treated tumors. […] Statistical significance of differences in mean cell type scores between Compound 23 and vehicle treated groups was evaluated using Mann-Whitney test (* P≤0.05, ** P≤0.01, and *** P≤0.001).
(§1) In FIG. 4B, CT26 tumors were harvested after 4 treatment doses and gene expression was directly measured using the nCounter Mouse PanCancer Immune Profiling Panel. Analysis was performed using the nSolver 4.0 and the nCounter Advanced Analysis software comparing gene expression in Compound 23 to vehicle treated tumors. As indicated in the titles above each panel, scatter plots of individual Pathway Signature Scores of vehicle and Compound 23 treated tumors are shown. Statistical significance of differences in Pathway Signature Scores between Compound 23 and vehicle treated groups was evaluated using Mann-Whitney test (* P≤0.05, ** P≤0.01, and *** P≤0.001).
as §1, with “FIG. 4C,” for “FIG. 4B,”, “after 19” for “after 4”

[5] = tested on: CT26 tumors; assay: CT26 tumor model with depleting antibodies for CD4+, CD8+ or NK cells; type: in vivo, mice; conditions: 30 mg/kg PO QD Day 9 to Day 25; tumor volume at Day 25
Description: Tumor volume at Day 25 is indicated. CD8+ T-cell or NK cell depletion abrogates Compound 23 activity. Stats calculated with Mann-Whitney (Vehicle vs. Compound 23) or one-way ANOVA with Dunn's multiple comparisons test (Compound 23 vs. Depletion groups); * P≤0.05, ** P≤0.01, **** P≤0.0001 The efficacy of Compound 23 on tumors is linked to CD8+ T function and on NK cell function.

[6] = tested on: 4T1 tumors; assay: Flow cytometry of tumor and blood from orthotopic 4T1 tumor-bearing mice; type: in vivo
Description: Tumor and blood samples were harvested on Day 28 and analyzed by Flow Cytometry.

[7] = tested on: CT26 tumors; assay: Flow cytometry of tumor-infiltrating immune cells in CT26 tumors; type: in vivo, mice; conditions: 30 mg/kg daily PO, 19 doses
Protocol: CT26 tumors were harvested after 19 doses of Compound 23 or vehicle and tumor-infiltrating immune cell density and phenotype was assessed by Flow Cytometry.

C[C@H]1CCCN(Cc2cc3c(c(C(F)(F)F)c2)CN(c2cccc([C@]4(c5nncn5C)C[C@@H](C)C4)c2)C3=O)C1 [Compound 23]
IFN-γ secretion [1]: enhanced | IL-2 secretion [1]: enhanced | anti-tumor activity, CT26 colon carcinoma model [2]: significant anti-tumor activity | survival at Day 140 [3]: exceeds 50% | anti-tumor activity, metastatic triple negative breast tumor model 4T1 ([3]; Day 8 to Day 46): significant anti-tumor activity | median survival time compared to vehicle control ([3]; Day 8 to Day 46, primary tumor resected Day 14 or 15, Log-rank test): significantly increased | mice that remained tumor free until the end of the study ([3]; Day 140): 54% | median survival ([3]; study end Day 140): undefined | cytotoxic cells score ([4]; after 4 doses, oral 30 mg/kg daily, P=0.1061): clear trend of increased infiltration | tumor infiltrating lymphocytes (TIL) score ([4]; after 4 doses, oral 30 mg/kg daily, P=0.6679): clear trend of increased infiltration | T-cell score ([4]; after 4 doses, oral 30 mg/kg daily, P=0.7551): clear trend of increased infiltration | pathway scores of innate immune signaling: dendritic cell function, macrophage function, chemokine receptors and pathways ([4]; after 4 doses): significant gene expression changes | pathway scores of T-cell, B cell, NK cell and adaptive immune function ([4]; after 4 doses, trend for increases): not significant | cytotoxic cell score ([4]; after 19 doses, oral, P=0.0002): significant increases | tumor infiltrating lymphocytes (TIL) score ([4]; after 19 doses, oral, P=0.0044): significant increases | T-cell score ([4]; after 19 doses, oral, P=0.0098): significant increases | immune related pathway scores: dendritic cell, macrophage, T-cell, NK cell, B cell, interferon function, adaptive immunity, chemokine and receptor, cytokine and receptor ([4]; after 19 doses): significantly enhanced function | effect of CD8+ T-cell depletion on antitumor activity [5]: abrogates | effect of NK cell depletion (anti-asialo-GM1) on antitumor activity [5]: abrogates | frequency of tumor gp70 antigen-specific CD8+ T-cells (AH1 Dextramer+ CD8+ T-cells) in 4T1 tumors ([6]; 30 mg/kg daily PO Day 9 to Day 28, FIG. 6A): increased | frequency of gp70 antigen-specific CD8+ T-cells with exhaustion phenotype (PD-1+ LAG3+) in 4T1 tumors ([6]; 30 mg/kg daily PO Day 9 to Day 28, FIG. 6B): decreased | frequency of circulating CD8+ T-cells with activated phenotype (PD-1+) in blood ([6]; 30 mg/kg daily PO Day 9 to Day 28, FIG. 6C): increased | frequency of circulating CD8+ T-cells with memory phenotype (CD44+CD27+CD127+) in blood ([6]; 30 mg/kg daily PO Day 9 to Day 28, FIG. 6D): increased | number of tumor-infiltrating leukocytes (TIL) per gram of tumor ([7]; FIG. 7A): increased | frequency of total CD3+ T cells as a percentage of CD45+ leukocytes ([7]; FIG. 7B): increased | frequency of total CD8+ T cells as a percentage of CD45+ leukocytes ([7]; FIG. 7C): increased | number of total CD8+ T-cells per gram of tumor ([7]; FIG. 7D): increased | frequency of CD8+ T-cells that express the activation marker CD29 (CD29+) ([7]; FIG. 7E): increased | CD8+ T-cells to Tregs ratio ([7]; FIG. 7F): increased | CD8+ effector T-cells (PD1+) to Tregs ratio ([7]; FIG. 7G): increased | frequency of activated NK cells (CD11b+) that express Granzyme+ ([7]; FIG. 7H): increased | frequency of activated NK cells (CD27+CD11 b+) that express Granzyme+ ([7]; FIG. 7I): increased

Source: patent US20250009731A1, “TOLL-LIKE RECEPTOR THERAPY COMBINATIONS WITH CBL-B INHIBITOR COMPOUNDS” (NURIX THERAPEUTICS, INC., priority 2021, published 2025)
